Test results from patent US9758477B2, “Sulfamoylbenzamide derivatives as antiviral agents against HBV infection” (priority 2011, dated 2017).
Read-outs that look alike come from different tables or passages of the source.

Legend:
[1] = test system: HBV; experiment: Antiviral efficacy in AML12HBV10 cells, HBV DNA by dot-blot hybridization; type: cell-based, Hepatitis B virus (HBV)
Description: The antiviral efficacy of the compounds of the disclosure, as presented in Tables 5, 6, 7, 8 and 9, were determined in AML12HBV10 cells. AML12HBV10 is an immortalized murine hepatocyte (AML12)-derived stable cell line that supports robust HBV replication in a tetracycline inducible manner (Xu et al.). The cells were seeded into 96 well plates at a density of 2×10^4 cells per well and cultured in DMEM/F12 media with 10% fetal bovine serum in the absence of tetracycline to allow pgRNA transcription and HBV DNA replication. One day after seeding, cells were left untreated or treated with a serial dilution of testing compounds, ranging from 50 μM to 0.39 μM, for 48 hours. Cells were then lysed by adding into each well of 100 μl lysis buffer containing 10 mM Tris-HCl (pH 7.6), 1 mM EDTA, 100 mM NaCl and 1% NP-40 and incubated at 37° C. for 30 minutes. Half amount (50 μl) of cell lysate from each well was combined with equal volume of denaturing solution containing 0.5N NaOH and 1.5M NaCl. After 5 minute incubation, 100 μl of neutralization solution (IM Tris-HCl, pH 7.4, 1.5M NaCl) was added into each well. The denatured cell lysates (totally 200 μl) were applied onto Nylon membrane using 96-well dot-blot manifold (Biorad). HBV DNA in the cell lysates were determined by dot-blot hybridization with alpha-^32P-UTP-labelled riboprobe specific for HBV minus strand DNA. The antiviral efficacy of a compound of the disclosure was expressed as the concentration that reduces the amount of HBV DNA by 50% (EC50).

[2] = Cytotoxicity in AML12HBV10 cells, MTT assay; type: cell-based, murine; details: mouse; AML12HBV10 cells, 48 hours, MTT; read-out: CC50 (cellular toxicity)
Description: (§1) Determination of cytotoxicity of compounds of the disclosure in AML12HBV10 cells: To determine the cytotoxicity of the compounds, AML12HBV10 cells were seeded into 96-well plates at a density of 2×10^4 cells per well and cultured in DMEM/F12 media with 10% fetal bovine serum in the absence of tetracycline to allow pgRNA transcription and HBV DNA replication. One day after seeding, cells were left untreated or treated with a serial dilution of testing compounds, ranging from 50 μM to 0.39 μM, for 48 hours. The cell viability was measured by a MTT assay, following procedure provided by the manufacturer (Promega). The cytotoxicity of a compound was expressed as the concentration of compound that reduces the viability of the cells by 50% (CC50).

[3] = test system: encapsidated pgRNA; experiment: Encapsidated pgRNA by Northern blot in AML12HBV10 cells; type: cell-based, Hepatitis B virus (HBV); details: 2 days, FIG. 3 panel C, Bay41-4109 5 μM, AT-61 25 μM
Description: (§2) To obtain mechanistic insight of the compounds of present invention against HBV, AML12HBV10 cells cultured in the 12-well plates were treated with a series of concentrations of DVR-1, DVR-56 or DVR-23 for two days in the absence of tetracycline (Guo et al., 2007). As positive controls, the cells were also treated with Bay41-4109 (5 μM) or AT-61 (25 μM), the known HBV nucleocapsid assembly effectors that either bind to HBV core protein dimmer to misdirect its interaction and prevent capsid formation (Bay41-4109) (Deres et al., 2003: Stray and Zlotnick, 2006), or interact with a core assembly intermediate and promote the formation of empty capsids (AT-61) (Feld et al., 2007; Katen et al., King et al., 1998). The amounts of intracellular viral mRNA, encapsidated pgRNA, capsids and nucleocapsid-associated HBV DNA were analyzed with the methods detailed below.
Determination of encapsidated pgRNA: AML12HBV10 cells were lysed by addition of 600 μl of lysis buffer (50 mM Tris-HCl [pH 7.5], 1 mM EDTA, 150 mM NaCl, 1% NP-40) into each well of 12-well plates. The nuclei were removed by centrifugation at 5,000 g for 10 minutes. One-half of the sample was mixed with 6 U of micrococcal nuclease (Pharmacia) and 15 μl of 100 mM CaCl2 and incubated for 15 minutes at 37° C. to digest free nucleic acids. The reaction was stopped with 6 μl of 0.5 M EDTA, and capsids were precipitated by adding 125 μl of 35% polyethylene glycol 8000 in 1.75 M NaCl to the reaction and incubating in ice for 30 minutes, followed by centrifugation at 6,000 g for 10 minutes at 4° C. Pellets were re-suspended in 50 μl of TNE buffer (10 mM Tris-HCl [pH 8], 100 mM NaCl, 1 mM EDTA), pgRNA was extracted by the addition of 1 ml of Trizol reagent. The encapsidated pgRNA were electrophoresed through a 2.2 M formaldehyde-1% agarose gel, transferred to a nylon membrane, and immobilized by UV cross-linking (Stratagene). Hybridization was performed with an alpha-^32P-UTP labeled riboprobe specific for plus strand of HBV genome.

[4] = test system: HBV capsids; experiment: Viral capsids by particle gel assay; type: cell-based, Hepatitis B virus (HBV); details: AML12HBV10 cells, 2 days, FIG. 3 panel B; Bay41-4109 5 μM, AT-61 25 μM
Description: as §2
(§3) Procedures of viral capsids and nucleocapsid-associated DNA analysis: HepDES19 cells were lysed by addition of 300 μl buffer containing 10 mM Tris-HCl (pH7.6), 100 mM NaCl, 1 mM EDTA and 0.1% NP-40 to each well of 12-well plate. […] HBV capsids were detected by probing the membrane with an antibody against HBV core protein (DAKO). […] The viral DNA was detected by hybridization with a α-^32P-UTP (800 Ci/mmol, Perkin Elmer) labeled minus strand specific full-length HBV riboprobe (Xu et al.).

[5] = test system: capsid-associated HBV DNA; experiment: Nucleocapsid-associated HBV DNA and DNA replication intermediates (particle gel hybridization, Southern blot); type: cell-based, Hepatitis B virus (HBV); details: AML12HBV10 cells, 2 days, FIG. 3 panels D and E; Bay41-4109 5 μM, AT-61 25 μM
Description: as §2
as §3, with “al.). […]” for “al.).”

[6] = test system: AML12HBV10 cells; experiment: Cytotoxicity in AML12HBV10 cells, MTT assay; type: cell-based, murine
Description: as §1

[7] = test system: HBV; experiment: Antiviral activity in HepDES19 cells, core-associated HBV DNA by Southern blot hybridization; type: cell-based; details: Hepatitis B virus, 144 h, Table 10, HepDES19 cells, 6 days, unit inferred
Description: FIG. 2 and Table 10, in human hepatoma-derived cell lines: To further confirm the antiviral activity of the compounds of the disclosure against HBV in human hepatocyte-derived cells, HepDES19 cells, a human hepatoma cell line supporting HBV replication in a tetracycline inducible manner (Guo et al., 2007), seeded into 12-well plates at a density of 5×10^5 cells per well and cultured in DMEM/F12 media with 10% fetal bovine serum and 1 μg/ml tetracycline. Two days after seeding, the cells were mock-treated or treated with a serial dilution of compounds of the disclosure, ranging from 10 μM to 0.018 μM, for 6 days in the absence of tetracycline. Upon the completion of treatment, cells were lysed by adding into each well of the 12-well plates 0.5 ml of lysis buffer containing 10 mM Tris-HCl (pH 8.0), 1 mM EDTA, 1% NP40 and 2% sucrose and incubating at 37° C. for 10 minutes. Cell debris and nuclei were removed by centrifugation and the supernatant was mixed with 130 μl of 35% polyethylene glycol (PEG) 8000 containing 1.5 M NaCl. After 1 hour incubation in ice, viral nucleocapsids were pelleted by centrifugation at 6,000×g for 5 min at 4° C., followed by 1 hour digestion at 37° C. in 400 μl of digestion buffer containing 0.5 mg/ml pronase (Calbiochem), 0.5% SDS, 150 mM NaCl, 25 mM Tris-HCl (pH 8.0) and 10 mM EDTA. The digestion mixture was extracted twice with phenol and DNA was precipitated with ethanol, dissolved in TE buffer (10 mM Tris-HCl, pH 8.0; 0.1 mM EDTA). One half of the DNA sample from each well was resolved by electrophoresis into a 1.5% agarose gel. The gel was then subjected to denaturation in a solution containing 0.5 M NaOH and 1.5 M NaCl, followed by neutralization in a buffer containing 1 M Tris-HCl (pH7.4) and 1.5 M NaCl. DNA was then blotted onto Hybond-XL membrane (GE Health care) in 20×SSC buffer. The amounts of cytoplasmic HBV core-associated HBV DNA were determined by Southern blot hybridization and the antiviral efficacy of a compound was expressed as its concentration that reduce the amount of HBV DNA by 50% (EC50) or 90% (EC90).

[8] = Cytotoxicity in HepDES19 cells, MTT assay; type: cell-based; details: human, Table 10, HepDES19 cells, unit inferred
Description: as §1, with “human hepatoma-derived cell lines, HepDES19” for “AML12HBV10 cells: To determine the cytotoxicity of the compounds, AML12HBV10”, “2×10^4” left out, “tetracycline.” for “tetracycline to allow pgRNA transcription and HBV DNA replication.”, “6 days.” for “48 hours.”

[9] = Hepatitis B virus, AML12HBV10 cells, 48 hours, concentration reducing HBV DNA by 50%, read-out: EC50 (antiviral activity by dot blot hybridization)
[10] = AML12HBV10 cells, 48 hours, concentration reducing HBV DNA by 50%, read-out: EC50 (antiviral activity by dot blot hybridization)
[11] = AML12HBV10 cells, 48 hours, MTT, read-out: CC50 (cellular toxicity)

O=C(NCc1ccccc1)c1ccc2c(c1)NC(=O)c1ccccc1S2(=O)=O
EC50 [1, 9]: 8 µM | CC50 at 48 h [2]: > 50 µM

O=C(N/C(C(=O)N1CCCCC1)=C(/Cl)c1ccccc1)c1ccccc1 [AT-61]
level of encapsidated pgRNA [3]: dose-dependently reduced | capsid formation [4]: did not affect | capsid-associated HBV DNA / DNA synthesis [5]: dose-dependently reduced

Cc1cccc(NC(=O)c2cc(S(N)(=O)=O)ccc2Cl)c1 [DVR-16]
EC50 [1, 10]: 6 µM | CC50 [6, 11]: > 50 µM

COC(=O)C1=C(C)NC(c2ncc(F)cc2F)=N[C@H]1c1ccc(F)cc1Cl [Bay41-4109]
level of encapsidated pgRNA [3]: completely abolished | capsid formation [4]: completely abolished | capsid-associated HBV DNA / DNA synthesis [5]: completely abolished

C=CCNS(=O)(=O)c1ccc(F)c(C(=O)Nc2ccc(F)c(F)c2)c1 [DVR-34]
EC50 [1, 10]: 4 µM | CC50 [6, 11]: > 50 µM

NS(=O)(=O)c1cc(C(=O)Nc2cc(C(F)(F)F)ccc2Cl)ccc1F [DVR-21]
EC50 [1, 10]: 6.8 µM | CC50 [6, 11]: > 50 µM

NS(=O)(=O)c1cccc(C(=O)Nc2ccccc2)c1 [DVR-22]
EC50 [1, 10]: 8 µM | CC50 [6, 11]: > 50 µM

COc1ccc(CCNS(=O)(=O)c2ccc(F)c(C(=O)Nc3ccc(Cl)cc3)c2)cc1OC [DVR-91]
EC50 [1, 10]: 16.8 µM | CC50 [6, 11]: > 50 µM

O=C(Nc1ccc(F)c(F)c1)c1cc(S(=O)(=O)NC2CCCCC2)ccc1F [DVR-45, 5-cyclohexylsulfamoyl-N-(3,4-difluoro-phenyl)-2-fluoro-benzamide]
EC50 [1, 9]: 0.8 µM | EC50 ([1]; Hepatitis B virus, Table 10, AML12HBV10 cells, unit inferred, read-out: AML12HBV10 EC50): 0.8 µM | CC50 at 48 h [2]: > 50 µM | CC50 ([6]; Table 10, AML12HBV10 cells, unit inferred, read-out: AML12HBV10 CC50): > 50 µM | EC90 ([7]; HBV DNA reduced by 90%): 2.11 µM | EC50 ([7]; Southern blot): 0.48 µM | CC50 at 6 days [8]: > 50 µM

NS(=O)(=O)c1cc(C(=O)Nc2cccc(C(F)(F)F)c2)ccc1F [DVR-19]
EC50 [1, 10]: 9 µM | CC50 [6, 11]: > 50 µM
